pEC50, pIC50: −log10 of the molar value. Several values for one entry are separate records, joined by “and”; a condition that tells them apart may be missing. Equal values may be shown once. Read-outs that look alike come from different tables or passages of the source.
Experiments:
Ae. albopictus = experiment: Repellence bioassay, human hand landing counts; type: in vivo, Aedes albopictus
AaegORco = molecular target: T1, AaegORco (Aedes aegypti, UniProt Q178U6); experiment: Two-microelectrode voltage-clamp recordings of Xenopus laevis oocytes expressing AaegORco, VUAA1-induced currents; type: cell-based; settings: 200 μM VUAA1 with equimolar compound; for Normalized response (%) of AaegORco to VUAA1 in combination with compound: printed in picture Fig. 4B
T1 construct: expressed in transfected cells; host or cells: Xenopus laevis oocytes microinjected with cRNA transcribed from the pSP64tRFA vector
T1 sequence (Q178U6 1-478): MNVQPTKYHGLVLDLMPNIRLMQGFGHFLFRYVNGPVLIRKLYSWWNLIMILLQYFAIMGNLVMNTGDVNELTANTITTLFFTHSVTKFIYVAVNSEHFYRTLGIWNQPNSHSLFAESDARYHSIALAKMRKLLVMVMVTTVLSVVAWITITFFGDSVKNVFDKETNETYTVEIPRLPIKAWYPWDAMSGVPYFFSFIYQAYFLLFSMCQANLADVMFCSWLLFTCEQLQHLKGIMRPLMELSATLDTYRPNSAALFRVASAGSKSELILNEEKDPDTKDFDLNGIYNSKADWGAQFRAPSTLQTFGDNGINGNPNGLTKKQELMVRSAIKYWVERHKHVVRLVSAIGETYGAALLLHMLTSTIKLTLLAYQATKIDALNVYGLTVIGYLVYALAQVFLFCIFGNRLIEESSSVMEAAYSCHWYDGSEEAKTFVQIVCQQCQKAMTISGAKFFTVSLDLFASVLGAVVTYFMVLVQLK
Method: Across all treatments, we observed a consistent increase in the third VUAA1-induced response relative to the first and second VUAA1 administrations (Fig. 4A). For this reason, the inhibition level (Fig. 4B) was calculated by normalizing the response amplitude elicited by the second stimulation, to the average current responses elicited by the first and last VUAA1 stimulations.
In vitro transcription and two-microelectrode voltage-clamp electrophysiological recordings were performed as described ([62]). Briefly, ORco of Ae. aegypti (AaegORco; GenBank: BK006142.1) was synthesized using the mMESSAGE mMACHINE SP6 kit (ThermoFisher Scientific) from the linearized pSP64tRFA expression vector. The harvested X. laevis oocytes were manually separated from the ovaries prior to collagenase treatment (8 mg/ml, 30 min, 18 °C) in order to remove the follicular layer. Stage V–VI oocytes were rinsed in washing solution (96 mM NaCl, 2 mM KCl, 5 mM MgCl2, and 5 mM Hepes, pH 7.6) and microinjected with a mixture of 1 μl AaegOrco (3 μg/μl) and 2 μl of double-distilled water. Injected oocytes were incubated at 18 °C for 3 days in Ringer’s solution (96 mM NaCl, 2 mM KCl, 5 mM MgCl2, 0.8 mM CaCl2, and 5 mM Hepes, pH 7.6) supplemented with 5% dialyzed horse serum, 50 μg/ml tetracycline, 100 μg/ml streptomycin, and 550 μg/ml sodium pyruvate. Whole-cell currents were recorded using the two-microelectrode voltage-clamp technique. During recording sessions, the holding potential was maintained at −80 mV using an OC-725C oocyte clamp (Warner Instruments, LLC). Oocytes were placed in a RC-3Z oocyte recording chamber (Warner Instruments) and exposed for 8 s to 200 μM VUAA1 (Innovapharm Ltd), 2,4-octadienal predominantly trans (Sigma-Aldrich), or carvacrol (Sigma-Aldrich). All compounds were solubilized in 200 μl of DMSO prior to the dilutions in the Ringer’s solution. Currents were allowed to return to baseline between odorant applications. Data acquisition and concentration–response analyses were carried out with a Digidata 1550A and the pCLAMP10 software (Molecular Devices). Statistical significance was evaluated with one-way ANOVA followed by Tukey's post test.

AgamORco = molecular target: T2, AgamORco (Anopheles gambiae, UniProt Q7QCC7); experiment: cell-based
T2 sequence (Q7QCC7 1-478): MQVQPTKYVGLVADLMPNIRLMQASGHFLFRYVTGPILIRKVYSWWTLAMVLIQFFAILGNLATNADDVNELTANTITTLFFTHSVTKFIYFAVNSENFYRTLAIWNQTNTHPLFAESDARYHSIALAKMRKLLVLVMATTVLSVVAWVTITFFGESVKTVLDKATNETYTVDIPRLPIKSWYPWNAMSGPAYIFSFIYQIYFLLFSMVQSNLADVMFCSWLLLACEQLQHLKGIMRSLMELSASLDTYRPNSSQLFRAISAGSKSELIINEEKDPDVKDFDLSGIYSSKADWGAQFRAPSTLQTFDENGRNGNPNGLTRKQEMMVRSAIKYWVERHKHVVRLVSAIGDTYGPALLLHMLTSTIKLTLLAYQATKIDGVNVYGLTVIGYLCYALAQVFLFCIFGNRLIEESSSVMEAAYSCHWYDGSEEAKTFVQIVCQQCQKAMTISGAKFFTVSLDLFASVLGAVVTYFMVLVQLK

Bm5 cells = experiment: Toxicity to the AgamORco/Photina-expressing Bm5 cells during dose-response evaluation; type: cell-based; settings: Bombyx mori, Bm5 cells stably expressing AgamORco and Photina
[1] = 0.01 μL equivalent per cm^2, 5 min
[2] = 0.04 μL equivalent per cm^2, 5 min
[3] = 0.2 μL equivalent per cm^2, 5 min
[4] = 50 μM ORcoRAM2 (OA), read-out: IC50 in binding competition assay
[5] = 50 μM ORcoRAM2 (OA), read-out: pIC50 in binding competition assay (converted)
[6] = 100 μM ORcoRAM2 (OA), read-out: IC50, inhibition of OA-dependent AgamORco channel activity
[7] = 100 μM ORcoRAM2 (OA), read-out: pIC50, inhibition of OA-dependent AgamORco channel activity (converted)
[8] = 150 μM ORcoRAM2 (OA), read-out: IC50 in binding competition assay
[9] = 150 μM ORcoRAM2 (OA), read-out: pIC50 in binding competition assay (converted)

Row | pEC50 (AgamORco; absence of antagonist, read-out: EC50 of ORco agonist on AgamORco) | Structure (SMILES) | Mean % repellency (Ae. albopictus; [1]) | Average landings (+ st. dev) (Ae. albopictus; 0.01 μL per cm2, 5 min) | Mean % repellency (Ae. albopictus; [2]) [%] | Average landings (+ st. dev) (Ae. albopictus; 0.04 μL per cm2, 5 min) | Mean % repellency (Ae. albopictus; [3]) [%] | Average landings (+ st. dev) (Ae. albopictus; 0.2 μL per cm2, 5 min) | Reduction of VUAA1-activated currents (AaegORco) | Normalized response (%) of AaegORco to VUAA1 in combination with compound (AaegORco) [%] | pIC50 (AgamORco; [4]) | IC50 (AgamORco; [5]) [µM] | pIC50 (AgamORco; [6]) | IC50 (AgamORco; [7]) [µM] | pIC50 (AgamORco; [8]) | IC50 (AgamORco; [9]) [µM] | Concentrations toxic to the cells (Bm5 cells)
1 |  | CCC/C=C/C=C/C=O [OCT, (2E,4E)-2,4-Octadienal] | 13.8% and 13.8 ± 12.8% | 47.1±7.0 | 97.9 ± 2.7 | 1.1±1.5 | 100 ± 0 | 0±0 | approximately 60% | -59.5 | 4.38 | 41.8 | 4.22 | 59.8 | 3.93 | 117 | 
2 |  | CCN(CC)C(=O)c1cccc(C)c1 [DEET, N,N-Diethyl-3-methylbenzamide, reference compound] | 96.7% and 96.7 ± 2.6% | 1.8±1.4 | 100 ± 0 | 0±0 | 100 ± 0 | 0±0 |  |  |  |  |  |  |  |  | 
3 |  | CC(C)OC(=O)C=Cc1ccccc1 [IPC, Isopropyl cinnamate, reference compound] |  |  |  |  | 96 ± 1.6 | 2.1±0.8 |  |  |  |  |  |  |  |  | 
4 |  | Cc1ccc(C(C)C)cc1O [CRV, Carvacrol] | 67.8% and 67.8 ± 9% | 17.6±4.9 | 99.1 ± 2 | 0.5±1.1 | 99.8 ± 0.7 | 0.1±0.4 | ~85% | -84.8 | 4.58 | 26.3 | 4.63 | 23.3 | 4.55 | 28.4 | above 250 μM
5 |  | CC1=CCC2[C@H](C1)C2(C)C (stereo partly drawn) [CAR, (1S)-3-Carene] |  |  |  |  | 89.8 ± 4.3 | 5.4±2.3 |  |  |  |  |  |  |  |  | 
6 |  | CC(C)c1ccc(CO)cc1 [CA, Cumin alcohol] | 63.2% and 63.2 ± 11.8% | 20.1±6.5 | 78 ± 7 | 11.8±3.7 | 99.8 ± 0.7 | 0.1±0.4 |  |  |  |  |  |  |  |  | 
7 |  | C=CC(C)(CCC=C(C)C)OC(C)=O (stereo not drawn) [LA, Linalyl acetate] |  |  |  |  | 72.3 ± 15.6 | 14.6±8.1 |  |  |  |  |  |  |  |  | 
8 | 4.04 | CCc1ccc(NC(=O)CSc2nnc(-c3ccccn3)n2CC)cc1 [ORcoRAM2, reference compound] |  |  |  |  |  |  |  |  |  |  |  |  |  |  | 

From paper PMC7948460, “Volatile allosteric antagonists of mosquito odorant receptors inhibit human-host attraction” (The Journal of Biological Chemistry, 2020)
